US10632192B2, “Pyrimidine compounds and their use as vaccine adjuvants” (Sumitomo Dainippon Pharma Co., Ltd., priority 2015, dated 2020)

What was measured:
C57BL/6 mouse [1] = experiment: OVA-specific IgG in plasma of mice immunized with OVA plus compound (ELISA); format: in vivo; details: intramuscular, equal volume mixture (100 μL/mouse) of OVA 1 mg/mL and compound 0.1 mg/mL, booster two weeks later, plasma one week after booster, vs negative control group, FIG. 1
Experimental: (§1) For the first immunization, an equal volume mixture (100 μL/mouse) of ovalbumin (OVA) (1 mg/mL) and a compound of the above Examples (0.1 mg/mL) was administered intramuscularly to gastrocnemius muscle of C57BL/6 mouse. Two weeks later, an equal amount of the same mixture was administered intramuscularly to the gastrocnemius muscle for booster immunization. One week after the booster immunization, cardiac blood was collected under isoflurane inhalation anesthesia, and plasma was collected by centrifugation. OVA-specific IgG value in plasma was measured by ELISA using mouse anti-ovalbumin IgG ELISA kit (Alpha Diagnostic) (See FIG. 1).

spleen cells [2] = experiment: CD8-positive effector memory T lymphocytes in spleen cells of immunized mice (flow cytometry); format: in vivo, mouse; details: spleen cells of mice of Test Example 1, CD44/CD62L staining; vs negative control group; FIG. 5
Experimental: as §1
The spleen cells were further incubated with antibody cocktail eFluor450-labeled anti-mouse CD3e antibody, Alexa Fluor647-labeled anti-mouse CD8 antibody, PE-Cy7-labeled anti-mouse CD44 antibody, PerCP-Cy5.5-labeled anti-mouse CD62L antibody and Fixable Viability Dye520 (eBioscience). Data acquisition and analysis were performed using FACS Cant II (BD Biosciences) and FLOWJO software (TreeStar).

spleen cells [3] = experiment: OVA-specific multifunctional CD4-positive T lymphocytes in spleen cells of immunized mice (flow cytometry); format: in vivo, mouse; details: spleen cells of mice of Test Example 1, cultured overnight with OVA and Brefeldin A; IFN-γ, IL-2, TNF-α staining; vs negative control group; FIG. 3
Experimental: as §1
The spleen cells were prepared from the mouse of Test Example 1. The cells were added with OVA and Brefeldin A (eBioscience) and cultured overnight. The cultured cells were harvested, stained with APC-labeled anti-mouse CD3e antibody, FITC-labeled anti-mouse CD4 antibody and Fixable Viability Dye Fluor® 450 (eBioscience), and fixed in Fixation/Permeabilization buffer (eBioscience). After treatment in Permeabilization buffer (eBioscience), the cells were stained with antibody cocktail PerCP-Cy5.5-labeled anti-IFN-γ antibody, PE-Cy7-labeled anti-IL-2 antibody, and PE-labeled TNF-α (eBioscience). Data acquisition and analysis were performed using FACS Cant II (BD Biosciences) and FLOWJO software (TreeStar).

spleen cells [4] = experiment: MHC-restricted OVA-specific CD8-positive T lymphocytes in spleen cells of immunized mice (tetramer staining); format: in vivo, mouse; details: spleen cells of mice of Test Example 1, H-2Kb OVA Tetramer-SINFEKL; vs negative control group; FIG. 4
Experimental: as §1
The spleen cells were also stained with eFluor 450-labeled anti-mouse CD3e antibody, Alexa Fluor® 647-labeled anti-mouse CD8 antibody, PE-labeled H-2Kb OVA Tetramer-SINFEKL (MBL) and Flexable Viability Dye eFluor 520 (eBioscience). Data acquisition and analysis were performed using FACS Cant II (BD Biosciences) and FLOWJO software (TreeStar).

C57BL/6 mouse [5] = experiment: OVA-specific IgG1 and IgG2c in immunized mouse plasma (ELISA); format: in vivo; details: intramuscular OVA + compound, prime and booster, vs negative control group, FIG. 2
Experimental: as §1
Also, the OVA-specific IgG1 and IgG2c values in the immunized mouse plasma were determined by ELISA method. Specifically, OVA solution (SIGMA) was added to a 96-well plate, followed by blocking with 1% skim milk (Wako Pure Chemical Industries, Ltd.). A plasma sample, which was diluted with phosphate buffer, and then a secondary antibody (goat anti-mouse IgG1 (Jackson) or IgG2c (Southern Bio)) were added. SureBlue™ TMB microwell peroxidase substrate (KPL) was added, and the product of the enzyme reaction was measured by microplate reader (See FIG. 2).

Row | SMILES | OVA-specific IgG production in plasma (C57BL/6 mouse [1]) | proportion of CD8-positive effector memory T lymphocytes (spleen cells [2]) | proportion of OVA-specific multifunctional CD4-positive T lymphocytes (spleen cells [3]) | proportion of MHC-restricted OVA-specific CD8-positive T lymphocytes (spleen cells [4]) | ratio of OVA-specific IgG2c to IgG1 in plasma (C57BL/6 mouse [5])
1 | CCC[C@@H](CCO)Nc1nc(N)nc(C)c1Cc1ccc(CN(C)CCNC(=O)CC/C(C)=C/CC/C(C)=C/CC/C(C)=C/CC/C=C(\C)CC/C=C(\C)CCC=C(C)C)cc1 [Example 1, (4E,8E,12E,16E,20E)-N-{2-[{4-[(2-amino-4-{[(3S)-1-hydroxyhexan-3-yl]amino}-6-methylpyrimidin-5-yl)methyl]benzyl}(methyl)amino]ethyl}-4,8,12,17,21,25-hexamethylhexacosa-4,8,12,16,20,24-hexaenamide] | induced significant OVA-specific IgG production | significantly increased | significantly increased | significantly increased | significantly increased
2 | CCC[C@@H](CO)Nc1nc(N)nc(C)c1Cc1ccc(C(=O)NCCNC(=O)CC/C(C)=C/CC/C(C)=C/CC/C(C)=C/CC/C=C(\C)CC/C=C(\C)CCC=C(C)C)cc1OC [Example 4, 4-[(2-amino-4-{[(25)-1-hydroxypentan-2-yl]amino}-6-methylpyrimidin-5-yl)methyl]-N-(2-{[(4E,8E,12E,16E,20E)-4,8,12,17,21,25-hexamethylhexacosa-4,8,12,16,20,24-hexaenoyl]amino}ethyl)-3-methoxybenzamide] | induced significant OVA-specific IgG production | significantly increased | significantly increased | significantly increased | significantly increased
